# US20100298141A1, “SUBSTITUTED PYRIDINE N-OXIDE HERBICIDES” (E. I. DU PONT DE NEMOURS AND COMPANY, priority 2007, published 2010)
# Tests used:
# [1] = system: redroot pigweed; test: Test A pre-/postemergence greenhouse test; assay type: in vivo, Amaranthus retroflexus; details: for Plant response rating, Pigweed: 0 to 100 scale where 0 is no effect and 100 is complete control; for Pigweed plant response rating: 0 to 100 scale
# Outline: (§1)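 Seeds sown in a loam soil–sand blend got a preemergence directed soil spray of compound in a non-phytotoxic solvent mixture containing surfactant. Postemergence sprays of the same formulation went at the same time onto plants 2–10 cm tall at the one- to two-leaf stage. Injury was scored visually against untreated controls after about ten days in the greenhouse.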
# [2] = system: wild oat; test: Test C pre-/postemergence test; assay type: in vivo, Avena fatua; details: for Plant response rating, Oat, Wild: 31 g ai/ha, scale 0 to 100 (0 no effect, 100 complete control)
# Outline: (§2)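 Seeds were planted and treated preemergence with test chemical in a non-phytotoxic solvent mixture containing surfactant. Postemergence applications of the same formulation went onto plants 2 to 18 cm tall (1- to 4-leaf stage). A dash marks no test result.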
# [3] = system: kochia; test: Test C pre-/postemergence test; assay type: in vivo, Kochia scoparia; details: for Plant response rating, Kochia: 31 g ai/ha, scale 0 to 100 (0 no effect, 100 complete control)
# Outline: as §2
# [4] = system: catchweed bedstraw; test: Test C pre-/postemergence test; assay type: in vivo, Galium aparine; details: for Plant response rating, Galium: 31 g ai/ha, scale 0 to 100 (0 no effect, 100 complete control)
# Outline: as §2
# [5] = system: duck salad; test: Test C flooded paddy test; assay type: in vivo, Heteranthera limosa; details: Flood
# Outline: (§3)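 Visual injury ratings against untreated controls, taken 13 to 15 days after compound was added to paddy water standing 3 cm above the soil.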
# [6] = system: rice; test: Test C flooded paddy test; assay type: in vivo, Oryza sativa; details: Flood
# Outline: as §3
# [7] = system: morningglory; test: Test A pre-/postemergence greenhouse test; assay type: in vivo, Ipomoea spp.; details: for Plant response rating, Morningglory: 0 to 100 scale where 0 is no effect and 100 is complete control; for Morningglory plant response rating: 0 to 100 scale
# Outline: as §1
# [8] = system: soybean; test: Test C pre-/postemergence test; assay type: in vivo, Glycine max; details: for Plant response rating, Soybean: 31 g ai/ha, scale 0 to 100 (0 no effect, 100 complete control)
# Outline: as §2
# [9] = system: cocklebur; test: Test C pre-/postemergence test; assay type: in vivo, Xanthium strumarium; details: for Plant response rating, Cocklebur: 31 g ai/ha, scale 0 to 100 (0 no effect, 100 complete control)
# Outline: as §2
# [10] = system: downy brome; test: Test C pre-/postemergence test; assay type: in vivo, Bromus tectorum; details: for Plant response rating, Bromegrass, Downy: 31 g ai/ha, scale 0 to 100 (0 no effect, 100 complete control)
# Outline: as §2
# [11] = system: lambsquarters; test: Test C pre-/postemergence test; assay type: in vivo, Chenopodium album; details: for Plant response rating, Lambsquarters: 31 g ai/ha, scale 0 to 100 (0 no effect, 100 complete control)
# Outline: as §2
# [12] = system: yellow nutsedge; test: Test C pre-/postemergence test; assay type: in vivo, Cyperus esculentus; details: for Plant response rating, Nutsedge, Yellow: 31 g ai/ha, scale 0 to 100 (0 no effect, 100 complete control)
# Outline: as §2
# [13] = system: blackgrass; test: Test C pre-/postemergence test; assay type: in vivo, Alopecurus myosuroides; details: for Plant response rating, Blackgrass: 31 g ai/ha, scale 0 to 100 (0 no effect, 100 complete control)
# Outline: as §2
# [14] = system: woolly cupgrass; test: Test C pre-/postemergence test; assay type: in vivo, Eriochloa villosa; details: for Plant response rating, Cupgrass, Woolly: 31 g ai/ha, scale 0 to 100 (0 no effect, 100 complete control)
# Outline: as §2
# [15] = system: bermudagrass; test: Test C pre-/postemergence test; assay type: in vivo, Cynodon dactylon; details: for Plant response rating, Bermudagrass: 31 g ai/ha
# Outline: as §2
# [16] = system: green foxtail; test: Test C pre-/postemergence test; assay type: in vivo, Setaria viridis; details: for Plant response rating, Foxtail, Green: 31 g ai/ha, scale 0 to 100 (0 no effect, 100 complete control)
# Outline: as §2
# [17] = Postemergence, 500 g ai/ha, 0 is no effect, 100 is complete control
# [18] = Preemergence, 125 g ai/ha, 0 no effect, 100 complete control
# [19] = 62 g ai/ha, Preemergence, scale 0 to 100
# [20] = 125 g ai/ha, preemergence, scale 0 (no effect) to 100 (complete control)
# [21] = preemergence, 250 g ai/ha, scale 0 (no effect) to 100 (complete control)
# [22] = 62 g ai/ha, scale 0 to 100 (0 no effect, 100 complete control)
# [23] = 250 g ai/ha, scale 0 to 100, 0 no effect, 100 complete control, 13 to 15 days
# [24] = 62 g ai/ha, Preemergence, scale 0 to 100 (0 no effect, 100 complete control)
# [25] = Preemergence, scale 0 to 100 (0 no effect, 100 complete control)
# [26] = Postemergence, 125 g ai/ha, 0 is no effect, 100 is complete control
# [27] = 31 g ai/ha, scale 0 to 100 (0 no effect, 100 complete control)
# [28] = 62 g ai/ha, scale 0 to 100, 0 no effect, 100 complete control, 13 to 15 days
# [29] = 125 g ai/ha, scale 0 to 100, 0 no effect, 100 complete control, 13 to 15 days
# [30] = 250 g ai/ha, scale 0 to 100 (0 no effect, 100 complete control)
# [31] = preemergence, 125 g ai/ha, scale 0 (no effect) to 100 (complete control)
structure (smiles),measurement,setting,value
Cc1cc[n+]([O-])c(S(=O)(=O)Cc2c(C(F)(F)F)nn(C)c2OC(C)C(F)(F)F)c1 (stereo not drawn) [Compound 96],"Plant response rating, Pigweed","[1]; Postemergence, 125 g ai/ha",30
same,Pigweed plant response rating,[1]; [17],80
same,Pigweed plant response rating,[1]; [18],90
same,"Plant response rating, Pigweed","[1]; Preemergence, 500 g ai/ha",90
same,"Oat, Wild plant response rating",[2]; [19],80
same,"Oat, Wild plant response rating",[2]; [20],95
same,"Plant response rating, Oat, Wild",[2]; Preemergence,70
same,"Oat, Wild plant response rating",[2]; [21],98
same,Kochia plant response rating,[3]; [19],70
same,Kochia plant response rating,[3]; [20],100
same,"Plant response rating, Kochia",[3]; Preemergence,0
same,Kochia plant response rating,[3]; [21],100
same,Galium plant response rating,[4]; [19],80
same,Galium plant response rating,[4]; [20],98
same,"Plant response rating, Galium",[4]; Preemergence,0
same,Galium plant response rating,[4]; [21],100
same,"Plant response rating, Ducksalad",[5]; [22],0
same,"Plant response rating, Ducksalad",[5]; [23],55
same,"Plant response rating, Rice",[6]; [22],0
same,"Plant response rating, Rice",[6]; [23],20
same,"Plant response rating, Morningglory","[7]; Postemergence, 125 g ai/ha",10
same,Morningglory plant response rating,[7]; [17],70
same,Morningglory plant response rating,[7]; [18],20
same,"Plant response rating, Morningglory","[7]; Preemergence, 500 g ai/ha",80
same,Soybean plant response rating,[8]; [19],20
same,Soybean plant response rating,[8]; [20],40
same,"Plant response rating, Soybean",[8]; Preemergence,20
same,Soybean plant response rating,[8]; [21],70
same,Cocklebur plant response rating,[9]; [19],0
same,Cocklebur plant response rating,[9]; [20],10
same,"Plant response rating, Cocklebur",[9]; Preemergence,0
same,Cocklebur plant response rating,[9]; [21],40
same,"Bromegrass, Downy plant response rating",[10]; [19],50
same,"Plant response rating, Bromegrass, Downy",[10]; Preemergence,50
same,"Bromegrass, Downy plant response rating",[10]; [21],55
same,Lambsquarters plant response rating,[11]; [19],100
same,Lambsquarters plant response rating,[11]; [20],100
same,"Plant response rating, Lambsquarters",[11]; Preemergence,50
same,Lambsquarters plant response rating,[11]; [21],100
same,"Nutsedge, Yellow plant response rating",[12]; [19],80
same,"Nutsedge, Yellow plant response rating",[12]; [20],95
same,"Plant response rating, Nutsedge, Yellow",[12]; Preemergence,40
same,"Nutsedge, Yellow plant response rating",[12]; [21],95
same,Blackgrass plant response rating,[13]; [19],100
same,Blackgrass plant response rating,[13]; [20],100
same,"Plant response rating, Blackgrass",[13]; Preemergence,65
same,Blackgrass plant response rating,[13]; [21],100
same,"Cupgrass, Woolly plant response rating",[14]; [19],70
same,"Cupgrass, Woolly plant response rating",[14]; [20],95
same,"Plant response rating, Cupgrass, Woolly",[14]; Preemergence,50
same,"Cupgrass, Woolly plant response rating",[14]; [21],98
same,Bermudagrass plant response rating,[15]; [24],100
same,Bermudagrass plant response rating,[15]; [20],100
same,"Plant response rating, Bermudagrass",[15]; [25],85
same,Bermudagrass plant response rating,[15]; [21],100
same,"Foxtail, Green plant response rating",[16]; [19],95
same,"Foxtail, Green plant response rating",[16]; [20],98
same,"Plant response rating, Foxtail, Green",[16]; Preemergence,95
same,"Foxtail, Green plant response rating",[16]; [21],100
Cn1nc(C(F)(F)F)c(C[S+]([O-])c2ccc(Cl)c[n+]2[O-])c1Cl (racemic) [Compound 17],Pigweed plant response rating,[1]; [26],40
same,Pigweed plant response rating,[1]; [17],80
same,Pigweed plant response rating,[1]; [18],100
same,"Plant response rating, Pigweed","[1]; Preemergence, 500 g ai/ha",100
same,"Oat, Wild plant response rating",[2]; [19],40
same,"Plant response rating, Oat, Wild",[2]; Preemergence,0
same,Kochia plant response rating,[3]; [19],100
same,"Plant response rating, Kochia",[3]; Preemergence,80
same,"Plant response rating, Galium",[4]; Preemergence,100
same,"Plant response rating (0 to 100), Galium","[4]; Preemergence, 250 g ai/ha",100
same,"Plant response rating, Ducksalad",[5]; [27],60
same,"Plant response rating, Ducksalad",[5]; [28],80
same,"Plant response rating, Ducksalad",[5]; [29],85
same,"Plant response rating, Ducksalad",[5]; [30],95
same,"Plant response rating, Rice",[6]; [27],0
same,"Plant response rating, Rice",[6]; [28],70
same,"Plant response rating, Rice",[6]; [29],75
same,"Plant response rating, Rice",[6]; [30],80
same,Morningglory plant response rating,[7]; [26],10
same,Morningglory plant response rating,[7]; [17],50
same,Morningglory plant response rating,[7]; [18],10
same,"Plant response rating, Morningglory","[7]; Preemergence, 500 g ai/ha",90
same,Soybean plant response rating,[8]; [19],20
same,"Plant response rating, Soybean",[8]; Preemergence,0
same,Cocklebur plant response rating,[9]; [19],0
same,"Plant response rating, Cocklebur",[9]; Preemergence,0
same,Cocklebur plant response rating,[9]; [31],0
same,"Bromegrass, Downy plant response rating",[10]; [19],40
same,"Plant response rating, Bromegrass, Downy",[10]; Preemergence,40
same,"Plant response rating (0 to 100), Bromegrass, Downy","[10]; Preemergence, 250 g ai/ha",85
same,"Bromegrass, Downy plant response rating",[10]; [31],80
same,Lambsquarters plant response rating,[11]; [19],100
same,"Plant response rating, Lambsquarters",[11]; Preemergence,100
same,"Nutsedge, Yellow plant response rating",[12]; [19],80
same,"Plant response rating, Nutsedge, Yellow",[12]; Preemergence,70
same,Blackgrass plant response rating,[13]; [19],80
same,"Plant response rating, Blackgrass",[13]; Preemergence,80
same,"Plant response rating (0 to 100), Blackgrass","[13]; Preemergence, 250 g ai/ha",100
same,Blackgrass plant response rating,[13]; [31],85
same,"Cupgrass, Woolly plant response rating",[14]; [19],100
same,"Plant response rating, Cupgrass, Woolly",[14]; Preemergence,95
same,"Plant response rating (0 to 100), Cupgrass, Woolly","[14]; Preemergence, 250 g ai/ha",100
same,Bermudagrass plant response rating,[15]; [24],100
same,"Plant response rating, Bermudagrass",[15]; [25],80
same,"Plant response rating (0 to 100), Bermudagrass","[15]; Preemergence, 250 g ai/ha",100
same,Bermudagrass plant response rating,[15]; [31],100
same,"Foxtail, Green plant response rating",[16]; [19],100
same,"Plant response rating, Foxtail, Green",[16]; Preemergence,70
same,"Plant response rating (0 to 100), Foxtail, Green","[16]; Preemergence, 250 g ai/ha",100
